Source: the supplement of paper PMC10307832

Key:
Experiment in all cases: relative viability (nuclei count vs DMSO), 5 days (fraction); higher = more cells survive
Ispinesib + Pictilisib = compound: Cc1ccc(C(=O)N(CCCN)[C@@H](c2nc3cc(Cl)ccc3c(=O)n2Cc2ccccc2)C(C)C)cc1 [Ispinesib] + CS(=O)(=O)N1CCN(Cc2cc3nc(-c4cccc5[nH]ncc45)nc(N4CCOCC4)c3s2)CC1 [Pictilisib] (partner 1 µM)
Method in brief: (§1)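 Dosing by pin tool came one day after lung cancer cell lines were seeded in 1536-well plates, using either one drug or a fixed anchor-drug dose plus five library-drug doses (not always all listed) in √10 steps. After 5 days, nuclei were counted on 4× images. Relative viability is treated-well nuclei count divided by vehicle-well nuclei count, and values are medians of duplicate plates.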

Ispinesib + Decitabine = compound: Cc1ccc(C(=O)N(CCCN)[C@@H](c2nc3cc(Cl)ccc3c(=O)n2Cc2ccccc2)C(C)C)cc1 [Ispinesib] + Nc1ncn([C@H]2C[C@H](O)[C@@H](CO)O2)c(=O)n1 [Decitabine] (partner 2 µM)
Method in brief: as §1

Linsitinib + Pictilisib = compound: C[C@]1(O)C[C@@H](c2nc(-c3ccc4ccc(-c5ccccc5)nc4c3)c3c(N)nccn32)C1 [Linsitinib] + CS(=O)(=O)N1CCN(Cc2cc3nc(-c4cccc5[nH]ncc45)nc(N4CCOCC4)c3s2)CC1 [Pictilisib] (partner 1 µM)
Method in brief: as §1

Linsitinib + OSI-027 = compound: C[C@]1(O)C[C@@H](c2nc(-c3ccc4ccc(-c5ccccc5)nc4c3)c3c(N)nccn32)C1 [Linsitinib] + COc1cccc2cc(-c3nc([C@H]4CC[C@H](C(=O)O)CC4)n4ncnc(N)c34)[nH]c12 [OSI-027] (partner 0.5 µM)
Method in brief: as §1

Cell Line	relative viability (Ispinesib + Pictilisib; first compound 0.001 µM)	relative viability (Ispinesib + Pictilisib; first compound 0.003162 µM)	relative viability (Ispinesib + Pictilisib; first compound 0.01 µM)	relative viability (Ispinesib + Pictilisib; first compound 0.03162 µM)	relative viability (Ispinesib + Pictilisib; first compound 0.1 µM)	relative viability (Ispinesib + Decitabine; first compound 0.001 µM)	relative viability (Ispinesib + Decitabine; first compound 0.003162 µM)	relative viability (Ispinesib + Decitabine; first compound 0.01 µM)	relative viability (Ispinesib + Decitabine; first compound 0.03162 µM)	relative viability (Ispinesib + Decitabine; first compound 0.1 µM)	relative viability (Linsitinib + Pictilisib; first compound 0.01 µM)	relative viability (Linsitinib + Pictilisib; first compound 0.03162 µM)	relative viability (Linsitinib + Pictilisib; first compound 0.1 µM)	relative viability (Linsitinib + Pictilisib; first compound 0.3162 µM)	relative viability (Linsitinib + Pictilisib; first compound 1 µM)	relative viability (Linsitinib + OSI-027; first compound 0.01 µM)	relative viability (Linsitinib + OSI-027; first compound 0.03162 µM)	relative viability (Linsitinib + OSI-027; first compound 0.1 µM)	relative viability (Linsitinib + OSI-027; first compound 0.3162 µM)	relative viability (Linsitinib + OSI-027; first compound 1 µM)
PC-14	0.796	0.668	0.78	0.232	0.169	0.21	0.18	0.0598	0.0507	0.0665	0.691	0.701	0.75	0.598	0.5	0.746	0.706	0.798	0.568	0.546
HCC-44	0.768	0.858	0.68	0.646	0.106	0.909	0.954	0.967	0.795	0.453	0.579	0.634	0.66	0.317	0.311	0.503	0.41	0.465	0.181	0.232
A-427	0.805	0.829	0.891	0.388	0.177	0.578	0.539	0.587	0.395	0.3	0.53	0.594	0.719		0.688	0.448	0.432	0.5		0.357
NCI-H596	0.416	0.377	0.372	0.361	0.251	1.02	1.89	1.15	1.02	0.885	0.248	0.393	0.382	0.343	0.317	0.7	0.694	0.802	0.674	0.448
RERF-LC-KJ	0.508	1.42	0.445	0.322	0.297	0.738	0.617	0.243	0.222	0.271	0.593	0.55	0.538	0.44	0.429	0.617	0.602	0.553	0.298	0.251
NCI-H647	0.402	0.504	0.449	0.104	0.0557	0.49	0.409	0.326	0.179	0.157	0.415	0.42	0.452		0.347	0.679	0.658	0.582		0.428
NCI-H1734	0.414	0.476	0.506	0.34	0.233	0.538	0.528	0.591	0.54	0.391	0.474	0.456	0.392	0.421	0.295	0.737	0.469	0.634	0.504	0.293
SK-LU-1	0.556	0.65	0.674	0.301	0.354	0.605	0.62	0.608	0.57	0.361	0.54	0.548	0.706		0.592	0.338		0.295	0.221	0.197
NCI-H1395	0.604	0.663	0.63	0.368	0.383	0.734	0.746	0.577	0.467	0.412	0.568	0.603	0.618	0.573	0.556	0.571	0.637	0.612	0.622	0.545
COR-L23	0.895	0.863	0.908	0.181	0.235	0.447	0.388	0.454	0.176	0.141	0.769	0.924	0.652	0.393	0.341	0.626	0.968	0.804	0.52	0.509
EMC-BAC-2	0.553	0.568	0.539	0.413	0.239	0.933	1.13	1.04	0.775	0.47	0.47	0.489	0.496	0.455	0.412	0.365	0.377	0.336	0.341	0.247
NCI-H1355	0.418	0.434	0.489	0.252	0.198	0.364	0.364	0.405	0.33	0.307	0.433	0.437	0.343	0.228	0.359	0.419	0.41	0.307	0.244	0.226
NCI-H1792	0.289	0.303	0.254	0.177	0.302	0.548	0.546	0.725	0.484	0.238	0.314	0.279	0.192	0.269	0.179		0.728	0.619	0.481	0.292
NCI-H1944	0.402	0.398	0.341	0.288	0.219	0.416	0.412	0.467	0.417	0.443	0.33	0.354	0.344	0.349	0.299	0.427	0.474	0.393	0.315	0.217
ABC-1	0.656	0.678	0.692	0.301	0.339	0.997	1.12	1.35		0.509	0.883	0.572	0.696	0.434	0.498	0.502	0.447	0.504	0.38	0.217
HOP-62	0.568	0.784	0.785	0.306	0.148	0.22	0.191	0.226	0.224	0.23	0.894	0.715	0.934		0.356	0.877	0.866	0.96		0.544
NCI-H2009	0.782	0.804	0.58	0.0875	0.173	0.447	0.365	0.383	0.366	0.244	0.946	0.796	0.833	0.101	0.687	0.746	0.646	0.696		0.428
